Experimental findings from US10493042B2, “Method for preventing or treating diabetes mellitus, and method for screening for diabetes mellitus therapeutic agent” (UNIVERSITY-INDUSTRY COOPERATION GROUP OF KYUNG HEE …, priority 2013, dated 2019) are described below.

Data set [1] deals with NCI-H716 cell. Kind of data set: GLP-1 secretion in human enteroendocrine cell (ELISA). The class given is cell-based. The conditions noted are these: 10, 20, 50, 100, 200, 500, 1000 and 2000 μM, 1 hour, FIG. 1A. The procedure: A NCI-H716 cell, i.e., a human enteroendocrine cell, was obtained from Korean Cell Line Bank. The obtained cell was culture in RPMI 1640 medium until the number of obtained cells increased in a proper amount. Then. the cells were moved to a matrigel-coated plate, and then cultured in DMEM medium for 48 hours, for endocrine differentiation.
Geraniol and nerol were purchased from Signa-Aldrich, USA.
Human enteroendocrine cells were each treated with geraniol at a concentration of 10, 20, 50, 100, 200, 500, 1000, and 2000 μM, respectively, and then cells were cultured for 1 hour. A human enteroendocrine cell was treated with nerol, which is an isomer of geraniol, as a comparison group, i.e., a negative control group, under the same condition as in the treating with geraniol.
GLP-1 secretion from the cell treated with geraniol and the cell treated with nerol were identified using enzyme-linked immunosorbent assay (ELISA). ELISA was carried out using a GLP-1 ELISA kit, available from Millipore, based on the user manual. The amount of GLP-1 secretion was measured using a fluoroskan ascent microplate reader (Thermo Electron Corp., Finland).
Background: In an ELISA, binding on a coated surface is turned into a signal by an enzyme label.

Data set [2] deals with T1, olfactory receptor OR1A1 (Homo sapiens, UniProt Q9P1Q5).
T1 construct: endogenous in cells; host or cells: human enteroendocrine cell (NCI-H716 named)
T1 sequence (Q9P1Q5 1-309): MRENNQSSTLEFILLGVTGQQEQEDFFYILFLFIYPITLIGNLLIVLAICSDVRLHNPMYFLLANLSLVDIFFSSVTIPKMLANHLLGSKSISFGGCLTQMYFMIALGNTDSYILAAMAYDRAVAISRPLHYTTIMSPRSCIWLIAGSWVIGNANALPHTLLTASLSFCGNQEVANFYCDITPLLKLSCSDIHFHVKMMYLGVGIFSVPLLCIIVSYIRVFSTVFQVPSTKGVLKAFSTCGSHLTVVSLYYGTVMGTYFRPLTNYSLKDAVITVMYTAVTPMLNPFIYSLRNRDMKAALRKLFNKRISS
Kind of data set: GLP-1 secretion by geraniol in enteroendocrine cell with OR1A1 knocked-down by siRNA. The class given is cell-based. To be noted: 100 μM, 1 hour, OR1A1 knocked-down vs normal cell, FIG. 1B. The procedure:
(§1) In a human enteroendocrine cell, in which an olfactory receptor is knocked-down by small-interference RNA (siRNA), an olfactory receptor signal transduction mechanism was identified.
(§2) Human enteroendocrine cells in which olfactory receptors OR1A1 and OR1G1 were knocked-down by siRNAs, respectively, were cultured. SiRNAs for knocking-down OR1A1 (SEQ ID NO. 1 and 2, siRNA No. 1108058) and OR1G1 (SEQ ID NO. 3 and 4, siRNA No. 1108121) are available from Bioneer Co. (South Korea). Lipofectamine 2000 (available from Life technology, USA) was used to carry out intracellular transfection, based on the user manual.
(§3) The human enteroendocrine cells in which olfactory receptors were knocked-down and a normal human enteroendocrine cell were each treated with geraniol at a concentration of 100 μM. Then, the cells were cultured for 1 hour at 37° C. at a concentration of 5% CO2. Thereafter, GLP-1 secretion was identified using ELISA.

The target in data set [3] is T2, olfactory receptor OR1G1 (Homo sapiens, UniProt P47890).
T2 construct: endogenous in cells; host or cells: human enteroendocrine cell (NCI-H716 named)
T2 sequence (P47890 1-313): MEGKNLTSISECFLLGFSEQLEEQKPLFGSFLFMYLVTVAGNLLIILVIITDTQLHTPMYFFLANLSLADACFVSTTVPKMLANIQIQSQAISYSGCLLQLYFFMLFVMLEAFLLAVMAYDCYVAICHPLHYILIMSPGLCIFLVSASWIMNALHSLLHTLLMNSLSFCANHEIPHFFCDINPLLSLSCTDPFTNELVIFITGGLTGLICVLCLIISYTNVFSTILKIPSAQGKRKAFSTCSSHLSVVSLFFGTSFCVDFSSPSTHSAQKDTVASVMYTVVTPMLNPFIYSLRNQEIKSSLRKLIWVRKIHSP
The experiment in a line: GLP-1 secretion by geraniol in enteroendocrine cell with OR1G1 knocked-down by siRNA. The class given is cell-based. To be noted: 100 μM, 1 hour, OR1G1 knocked-down vs normal cell, FIG. 1C. On the procedure: as §1, §2, §3

Data set [4] has as its system human enteroendocrine cell. Kind of data set: Change of calcium concentration in human enteroendocrine cell. Format: cell-based. The conditions noted are these: 100 μM, treated after 1 minute elapsed from the start of the experiment, FIG. 2. The source says:
FIG. 2 is a graph showing the change of calcium concentration in a human enteroendocrine cell after geraniol treatment.

The test system of data set [5] is human enteroendocrine cell. Kind of data set: Change amount of cAMP in human enteroendocrine cell (cAMP ELISA). The class given is cell-based. To be noted: 100 μM geraniol, FIG. 3. On the procedure: In a human enteroendocrine cell, the result of geraniol treatment (100 μM) and forskolin treatment (10 μM), which is a cAMP activator, were compared with each other.

The test system of data set [6] is db/db mouse, type II diabetes mellitus model. Kind of data set: Oral glucose tolerance test after gavage. The class given is in vivo. The procedure: Oral glucose tolerance test was performed on a db/db mouse (leptin receptor knocked-out mice) (35 g to 39 g), which is a type II diabetes mellitus model. A male 6 week-old db/db mouse was purchased from Daehan Biolink Co., Ltd (DBL, South Korea). A fasting blood sugar level of a db/db mouse of 18 hour-gastric emptying fasted state was measured. Then, the experimental group and the control group were each oral administered with geraniol and metformin, and saline via gavage. Geraniol was administered at 150 or 500 mg/weight Kg, and metformin was administered at 300 mg/weight Kg. Then, each group was administered with glucose of 5 g/weight Kg. Oral glucose tolerance test (OGTT) was performed after 10 minutes, 20 minutes, 40 minutes, 90 minutes, and 120 minutes elapsed.

Data set [7] shares this test system. The experiment in a line: Plasma GLP-1 and insulin after gavage and glucose (multiplex assay). The conditions noted are these: oral administration, glucose 2 g/weight Kg, compared with PBS group. Format: in vivo. On the procedure:
By using the same method in Example 2 (1), db/db mice of fasted state were each gavaged with geraniol, metformin, or saline. Then, each group were administered with glucose of 2 g/weight Kg. after 10 minutes, 20 minutes, 30 minutes, and 40 minutes elapsed, the amount of GLP-1 and insulin in plasma were measured by using multiplex assay (available from Bio-Rad, USA), based on the user manual, and Bio-Plex MAGPIX multiplex reader (available from Bio-Rad, USA).

For data set [8] the test system is unchanged. Kind of data set: Oral glucose tolerance test with geraniol smelling (olfactory stimulation). The class given is in vivo. On the procedure:
A male 6 week-old db/db mouse was purchased from Daehan Biolink Co., Ltd (DBL, South Korea). A fasting blood sugar level of a db/db mouse of 18 hour-gastric emptying fasted state was measured. Then, the experimental group was stimulated (smelling) with geraniol through olfaction. The control group was oral administered with saline and metformin of 300 mg/weight Kg via gavage. Then, each of the experimental group and the control group were administered with glucose of 2 g/weight Kg. After 10 minutes, 20 minutes, 40 minutes, 90 minutes, and 120 minutes elapsed, the amount of GLP-1 in plasma was verified by using multiplex assay (available from Bio-Rad, USA).

Data set [9] concerns NCI-H716 cell. The experiment in a line: Cell viability MTT assay. The class given is cell-based, human. The conditions noted are these: 10 μM to 1000 μM, 1 hour, compared with PBS, FIG. 8. The procedure: In order to verify cytotoxicity of geraniol on a human enteroendocrine cell, MTT assay was carried out as follows. In detail, cell viability assay was carried out using 3-(4,5-dimethylthiazol-2-yl)-2,5-diphenyltetrazolium) bromide (MTT) (available from Invitrogen, Carlsbad, Calif., USA). An endocrine cell, a NCI-H716 cell, was treated with geraniol of different levels of concentration and 6 mM MTT for 1 hour. Dimethyl sulfoxide (DMSO) was added to the cells, and absorbance thereof was measured using Bio-Rad model 680 microplated reader (Bio-Rad, Hercules, Calif., USA) at 540 nm.

Regarding `CC(C)=CCC/C(C)=C\CO` [nerol, reference compound], the “GLP-1 secretion promoting effect” value in [1] was “had no GLP-1 secretion promotion effect”.
On to `CC(C)=CCC/C(C)=C/CO` [geraniol], for which, in [1], the “GLP-1 secretion promoting effect” value was “dose-dependently promotes GLP-1 secretion”. Also, the “GLP-1 secretion via stimulation of OR1A1” value in [2] is on record as “stimulates OR1A1, an olfactory receptor, promoting GLP-1 secretion”. Moreover, the “GLP-1 secretion via stimulation of OR1G1” value in data set [3] is recorded as “stimulates OR1G1, an olfactory receptor, promoting GLP-1 secretion”. Besides, the “time at which calcium concentration in the cell was the highest” value in data set [4] is 4 min. Further, in data set [5], the “time after treatment at which concentration of cAMP in the cell was the highest” value was 30 min. Further, the “hypoglycemic effect at oral glucose tolerance test” value in data set [6] (gavage 150 or 500 mg/weight Kg, glucose 5 g/weight Kg, compared with saline group, FIG. 5A-5C) was “exhibited hypoglycemic effect”. Also, the “hypoglycemic effect compared with metformin” value in data set [6] (geraniol gavage 150 or 500 mg/weight Kg vs metformin 300 mg/weight Kg) is listed as “comparable to metformin”. In [7] (FIG. 6A, 6C), the “plasma GLP-1” value is given as “secretion inducing of GLP-1”. In addition, in data set [7] (FIG. 6B, 6D), the plasma insulin result is given as “additional insulin”. In data set [8] (geraniol smelling (olfactory stimulation), FIG. 9), the blood sugar level entry is “lowered the blood sugar level”. The “amount of GLP-1 in plasma” value in data set [8] (geraniol smelling, 10 minutes after glucose 2 g/weight Kg, vs metformin 300 mg/weight Kg oral, FIG. 10) is given as “increased more than the case of metformin administration”. In addition, the “cytotoxicity (cell viability, MTT)” value in data set [9] is recorded as “found not to have cytotoxicity”.
